The source made the active and inactive calls. No cut-off for these calls is given here.
Columns and labels:
Assay type in all cases: cell-based
Glucocorticoid receptor [1] = target: T1, Glucocorticoid receptor (Homo sapiens, UniProt P04150); assay: Antagonist activity at human GRalpha expressed in HEK293 cells assessed as inhibition of dexamethasone-induced response after 24 hrs by luciferase reporter gene assay
T1 sequence (P04150 whole entry): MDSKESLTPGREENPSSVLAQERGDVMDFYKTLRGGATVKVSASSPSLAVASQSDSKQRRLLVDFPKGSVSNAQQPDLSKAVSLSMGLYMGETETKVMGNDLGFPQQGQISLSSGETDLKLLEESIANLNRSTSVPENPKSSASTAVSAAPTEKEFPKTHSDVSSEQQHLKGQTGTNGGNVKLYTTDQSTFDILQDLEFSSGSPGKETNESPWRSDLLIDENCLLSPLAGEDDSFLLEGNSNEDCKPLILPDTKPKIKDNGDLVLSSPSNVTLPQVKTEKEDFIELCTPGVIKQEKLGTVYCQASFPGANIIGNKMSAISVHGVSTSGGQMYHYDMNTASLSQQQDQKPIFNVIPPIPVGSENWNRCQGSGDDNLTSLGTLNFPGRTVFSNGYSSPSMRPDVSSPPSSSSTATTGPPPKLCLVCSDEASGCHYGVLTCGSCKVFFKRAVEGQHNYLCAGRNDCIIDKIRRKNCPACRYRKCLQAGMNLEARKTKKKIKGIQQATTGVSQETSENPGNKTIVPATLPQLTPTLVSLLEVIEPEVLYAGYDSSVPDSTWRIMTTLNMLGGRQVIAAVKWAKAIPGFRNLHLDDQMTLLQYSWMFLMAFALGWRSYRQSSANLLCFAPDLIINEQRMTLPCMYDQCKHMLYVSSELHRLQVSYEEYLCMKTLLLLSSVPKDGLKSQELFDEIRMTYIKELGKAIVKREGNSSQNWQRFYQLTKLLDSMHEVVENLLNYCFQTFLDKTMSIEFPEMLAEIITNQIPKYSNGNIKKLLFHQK

[2] = target: T2, Androgen receptor (Homo sapiens) (UniProt P10275); assay: Antagonist activity at human AR expressed in HEK293 cells at 30 uM after 24 hrs by luciferase reporter gene assay
T2 sequence (whole entry): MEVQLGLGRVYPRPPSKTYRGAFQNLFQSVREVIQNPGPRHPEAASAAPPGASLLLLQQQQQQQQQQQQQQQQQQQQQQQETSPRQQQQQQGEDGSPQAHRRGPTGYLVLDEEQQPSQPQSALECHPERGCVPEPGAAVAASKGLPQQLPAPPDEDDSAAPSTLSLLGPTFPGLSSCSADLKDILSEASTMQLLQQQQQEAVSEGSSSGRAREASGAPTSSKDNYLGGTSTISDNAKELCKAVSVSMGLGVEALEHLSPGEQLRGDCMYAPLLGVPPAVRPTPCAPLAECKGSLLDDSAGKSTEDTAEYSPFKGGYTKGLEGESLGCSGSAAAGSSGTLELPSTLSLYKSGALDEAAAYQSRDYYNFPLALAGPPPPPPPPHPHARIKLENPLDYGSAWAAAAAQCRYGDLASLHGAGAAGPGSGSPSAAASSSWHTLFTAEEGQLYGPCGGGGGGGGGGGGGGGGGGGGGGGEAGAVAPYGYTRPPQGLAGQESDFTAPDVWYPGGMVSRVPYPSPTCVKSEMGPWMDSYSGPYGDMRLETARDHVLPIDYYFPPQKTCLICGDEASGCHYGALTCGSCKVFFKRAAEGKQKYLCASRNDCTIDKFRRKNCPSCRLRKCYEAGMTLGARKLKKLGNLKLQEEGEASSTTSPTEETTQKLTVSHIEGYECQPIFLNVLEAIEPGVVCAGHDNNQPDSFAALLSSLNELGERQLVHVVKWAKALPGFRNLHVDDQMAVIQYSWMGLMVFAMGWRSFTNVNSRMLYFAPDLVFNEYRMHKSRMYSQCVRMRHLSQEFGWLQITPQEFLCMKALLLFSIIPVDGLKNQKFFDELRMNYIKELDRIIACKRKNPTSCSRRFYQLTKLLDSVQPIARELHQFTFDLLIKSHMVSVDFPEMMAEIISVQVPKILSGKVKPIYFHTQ

Progesterone receptor = target: T3, Progesterone receptor (Homo sapiens, UniProt P06401); assay: Antagonist activity at PR in human T47D cells assessed as inhibition of progesterone-induced response after 24 hrs by alkaline phosphatase assay
T3 sequence (P06401 whole entry): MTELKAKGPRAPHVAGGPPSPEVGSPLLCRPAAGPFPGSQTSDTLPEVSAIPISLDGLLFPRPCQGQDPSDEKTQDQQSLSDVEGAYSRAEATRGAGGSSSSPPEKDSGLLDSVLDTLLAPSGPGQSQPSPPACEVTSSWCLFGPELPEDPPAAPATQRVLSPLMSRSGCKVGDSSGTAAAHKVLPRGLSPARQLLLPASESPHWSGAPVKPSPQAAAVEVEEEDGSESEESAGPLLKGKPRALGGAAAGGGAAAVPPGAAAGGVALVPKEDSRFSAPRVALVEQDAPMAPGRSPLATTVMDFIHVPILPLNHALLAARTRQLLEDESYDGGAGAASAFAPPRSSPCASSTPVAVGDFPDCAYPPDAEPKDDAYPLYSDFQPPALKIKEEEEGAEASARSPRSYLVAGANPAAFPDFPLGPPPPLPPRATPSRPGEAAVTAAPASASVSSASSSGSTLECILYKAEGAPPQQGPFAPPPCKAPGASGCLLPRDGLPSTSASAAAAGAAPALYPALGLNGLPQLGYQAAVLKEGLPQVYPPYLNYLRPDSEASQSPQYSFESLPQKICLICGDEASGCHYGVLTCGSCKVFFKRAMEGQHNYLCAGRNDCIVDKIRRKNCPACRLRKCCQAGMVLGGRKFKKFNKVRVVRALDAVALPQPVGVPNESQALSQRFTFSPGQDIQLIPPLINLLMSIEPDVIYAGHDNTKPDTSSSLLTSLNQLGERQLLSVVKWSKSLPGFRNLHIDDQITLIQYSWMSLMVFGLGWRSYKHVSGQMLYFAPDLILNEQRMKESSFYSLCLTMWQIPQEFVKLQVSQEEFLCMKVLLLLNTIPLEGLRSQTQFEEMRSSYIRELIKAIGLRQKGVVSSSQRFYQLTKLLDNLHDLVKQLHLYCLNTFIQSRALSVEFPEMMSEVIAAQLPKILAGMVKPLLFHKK

[3] = target: T4, Estrogen receptor (Homo sapiens) (UniProt P03372); assay: Antagonist activity at human GAL4-fused ERalpha LBD expressed in HEK293 cells at 30 uM after 24 hrs by luciferase reporter gene assay
T4 sequence (whole entry): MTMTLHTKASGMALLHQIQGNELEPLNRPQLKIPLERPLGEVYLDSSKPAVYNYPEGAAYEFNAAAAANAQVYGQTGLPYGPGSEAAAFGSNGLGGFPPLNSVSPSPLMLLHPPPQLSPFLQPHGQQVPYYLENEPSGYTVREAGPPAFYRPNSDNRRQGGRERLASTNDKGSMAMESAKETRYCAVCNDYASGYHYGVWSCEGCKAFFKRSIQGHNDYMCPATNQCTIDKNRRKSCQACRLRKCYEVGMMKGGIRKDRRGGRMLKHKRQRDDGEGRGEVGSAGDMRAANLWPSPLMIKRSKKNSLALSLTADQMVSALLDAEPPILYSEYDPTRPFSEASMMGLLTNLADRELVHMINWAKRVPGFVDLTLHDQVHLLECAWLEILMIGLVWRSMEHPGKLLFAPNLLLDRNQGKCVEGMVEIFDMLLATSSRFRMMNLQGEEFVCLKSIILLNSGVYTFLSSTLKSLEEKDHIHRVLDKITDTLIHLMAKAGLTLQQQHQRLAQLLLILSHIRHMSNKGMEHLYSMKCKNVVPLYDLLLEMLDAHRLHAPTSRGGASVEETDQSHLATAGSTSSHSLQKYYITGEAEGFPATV

[4] = target: T5, Glucocorticoid receptor (Homo sapiens) (UniProt P04150); assay: Transrepression of human GRalpha expressed in HEK293 cells co-expressing pGL4.32 assessed as inhibition of TNFalpha-stimulated NF-kB activity at 30 uM preincubated for 4 hrs followed by TNFalpha addition measured after 3 hrs by luciferase reporter gene assay relative to control
T5 sequence (whole entry): T1 sequence (P04150 whole entry)

[5] = target: Estrogen receptor beta (Homo sapiens) (UniProt Q92731); assay: Antagonist activity at human GAL4-fused ERbeta LBD expressed in HEK293 cells at 30 uM after 24 hrs by luciferase reporter gene assay
Sequence of Estrogen receptor beta (Homo sapiens) (Q92731 whole entry, the tested form may be a part): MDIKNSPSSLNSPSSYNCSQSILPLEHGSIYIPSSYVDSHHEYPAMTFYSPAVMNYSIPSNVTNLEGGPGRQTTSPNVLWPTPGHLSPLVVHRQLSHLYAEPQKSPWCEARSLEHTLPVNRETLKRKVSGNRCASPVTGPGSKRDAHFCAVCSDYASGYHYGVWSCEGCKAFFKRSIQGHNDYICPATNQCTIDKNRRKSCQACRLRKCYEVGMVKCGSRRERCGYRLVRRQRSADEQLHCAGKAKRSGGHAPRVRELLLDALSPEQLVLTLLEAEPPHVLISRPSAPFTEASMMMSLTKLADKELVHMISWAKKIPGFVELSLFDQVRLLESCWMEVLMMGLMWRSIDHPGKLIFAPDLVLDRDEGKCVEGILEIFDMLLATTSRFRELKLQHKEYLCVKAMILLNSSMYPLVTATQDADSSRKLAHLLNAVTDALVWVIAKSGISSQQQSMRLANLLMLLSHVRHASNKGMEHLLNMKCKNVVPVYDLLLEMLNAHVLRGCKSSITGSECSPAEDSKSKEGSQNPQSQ

Glucocorticoid receptor [6] = target: T1, Glucocorticoid receptor; assay: Transactivation of human GRalpha expressed in HEK293 cells after 24 hrs by luciferase reporter gene assay; conditions: hek293, 24 h

- IC50 (Glucocorticoid receptor [1]): 1.43 µM
- inhibition [2]: inactive
- IC50 (Progesterone receptor): 8 µM
- inhibition [3]: inactive
- inhibition [4]: inactive
- inhibition [5]: inactive
- Activity (Glucocorticoid receptor [6]): Not Active
SMILES: N#Cc1ccc(S(=O)(=O)N(Cc2ccccc2)c2ccc(Oc3ccccc3)cc2)cc1

Reference: ChEMBL document CHEMBL4033684, “Development of nonsteroidal glucocorticoid receptor modulators based on N-benzyl-N-(4-phenoxyphenyl)benzenesulfonamide scaffold” (Bioorg Med Chem, 2017)
